Assay results from patent US20250145632A1, “Pyrimidine Heterocyclic Compound, Preparation Method Thereof and use Thereof in Medicine” (INSILICO MEDICINE IP LIMITED, priority 2021, published 2025).

Assays:
CDK7/Cyclin H/MAT1 = CDK7/Cyclin H/MAT1 (Homo sapiens (Human), UniProt P50613); test: In-vitro inhibition of CDK7/Cyclin H/MAT1 kinase activity (Caliper mobility shift); type: biochemical; conditions: ATP 50 μM, 70 min, 27° C.; read-out: CDK7/CyclinH/MAT1 IC50 assay
Description: (§1) CDK2/Cyclin E1 was purchased from Biortus; batch No.: 20150228-BP469/477/691; CDK7/Cyclin H/MAT1 was purchased from Biortus; Batch No.: 20190326-BP487/492/479; CDK9/Cyclin T1 was purchased from Biortus; Batch No.: 20200727-BP488/792/691; CDK12/Cyclin K was purchased from Biortus; Batch No.: 20200526-BP1642/1648/691; MES was purchased from BiRoYee (Baoruyi); Batch No.: 67GR9637; BSA was purchased from Aladdin; Batch No.: H1601024; ATP was purchased from VWR; Batch No.: 97061-226; EDTA was purchased from Sinopharm Group; Batch No.: 20200521; and staurosporine was purchased from Selleckchem; Batch No.: S1421.
This experiment was used for determining the inhibition of the activities of CDK2, CDK7, CDK9 and CDK12 kinases by the compound. The kinase reaction carried out by the present invention was measured in a 384-well plate, the final measured volume was 16 μl, and the reaction temperature was 27° C. The concentrations of the kinases were determined by optimization experiment. […] The data was calculated with GraphPad Prism version 9.0, and an IC50 value was obtained by adjusting a nonlinear regression model using a dose reaction curve. […]

CDK2/Cyclin E1 = CDK2/Cyclin E1 (Homo sapiens (Human), UniProt P24941); test: In-vitro inhibition of CDK2/Cyclin E1 kinase activity (Caliper mobility shift); type: biochemical; conditions: for Ki: Ki calculated from IC50 under Km ATP condition (Cheng and Prusoff); for Selectivity (CDK2 Ki/CDK7 KD): Ki off-target / KD CDK7 (SPR)
Description: as §1
(§2) This experiment was used for determining the inhibition of the activities of CDK2, CDK7, CDK9 and CDK12 kinases by the compound. The kinase reaction carried out by the present invention was measured in a 384-well plate, the final measured volume was 16 μl, and the reaction temperature was 27° C. The concentrations of the kinases were determined by optimization experiment. The specific experimental process was as follows: • 1) preparation of kinase solutions: • kinase solution (CDK2/Cyclin E1): the kinase was diluted in a assay buffer solution ((20 mM MES pH 6.75, 0.01% Tween 20, 0.05 mg/mL BSA, 2 mM MgCl2) to obtain an enzyme solution with the corresponding 2.4× concentration; • kinase solution (CDK7/Cyclin H/MAT1): the kinase was diluted in the assay buffer solution (20 mM MES pH 6.75, 0.01% Tween 20, 0.05 mg/mL BSA, 6 mM MgCl2) to obtain an enzyme solution with the corresponding 2.4× concentration; • kinase solution (CDK9/Cyclin T1): the kinase was diluted in the assay buffer solution (20 mM MES pH 6.75, 0.01% Tween 20, 0.05 mg/mL BSA, 10 mM MgCl2) to obtain an enzyme solution with the corresponding 2.4× concentration; and • kinase solution (CDK12/Cyclin K): the kinase was diluted in a assay buffer solution (80 mM MES pH 6.5, 0.01% Tween 20, 0.05 mg/mL BSA, 10 mM MgCl2) to obtain an enzyme solution with the corresponding 2.4× concentration. • 2) Preparation of compound solutions: the compound was dissolved in dimethyl sulfoxide (DMSO) at a concentration of 10 mM, the compound was diluted to 10 concentration gradients of 25 nM to 500 μM with DMSO during use, diluted in ultrapure water by 8.3 times respectively to obtain compound solutions with 6× concentration. • 3) Preparation of a polypeptide substrate and ATP solution: the polypeptide substrate and ATP were diluted in the assay buffer solution to obtain a polypeptide substrate and ATP mixed solution with 2.4× concentration. • 4) Kinase reaction process: • 2 ul of the test compound solution, 5 ul of the polypeptide substrate and ATP mixed solution and 5 ul of an enzyme solution were mixed and incubated at 27° C. (CDK2 was incubated for 60 min, CDK7 was incubated for 70 min, CDK9 was incubated for 70 min, and CDK12 was incubated for 280 min), and then 4 ul of EDTA with a concentration of 150 mM was added into each sample to terminate the reaction. […] The data was calculated with GraphPad Prism version 9.0, and an IC50 value was obtained by adjusting a nonlinear regression model using a dose reaction curve. The calculation formula was Y=Bottom+(Top-Bottom)/(1+10^((LogIC50−X)*HillSlope)). X represents a log value (log of dose or concentration); Y represents an inhibition rate (% inhibition, increasing as x increases) which was increased along with the increase of X; Top represents maximum response; Bottom represents baseline response; and HillSlope represents a curve slope.

CDK9/Cyclin T1 = CDK9/Cyclin T1 (Homo sapiens (Human), UniProt P50750); test: In-vitro inhibition of CDK9/Cyclin T1 kinase activity (Caliper mobility shift); type: biochemical; conditions: for Ki: Ki calculated from IC50 under Km ATP condition (Cheng and Prusoff); for Selectivity (CDK9 Ki/CDK7 KD): Ki off-target / KD CDK7 (SPR)
Description: as §1, §2

CDK12/Cyclin K = CDK12/Cyclin K (Homo sapiens (Human), UniProt Q9NYV4); test: In-vitro inhibition of CDK12/Cyclin K kinase activity (Caliper mobility shift); type: biochemical; conditions: for Ki: Ki calculated from IC50 under Km ATP condition (Cheng and Prusoff); for Selectivity (CDK12 Ki/CDK7 KD): Ki off-target / KD CDK7 (SPR)
Description: as §1, §2

[1] = test system: HCC70 human breast ductal cancer cells; test: HCC70 tumor cell proliferation inhibition (CellTiter-Glo); type: cell-based; conditions: 3 d culture
Method: HCC70 was purchased from ATCC; article No.: CRL-2315; RPMI1640 was purchased from Gibco; article No.: 11875-093; Pancreatin (including EDTA) was purchased from Gibco; article No.: 25200-072; FBS was purchased from Gibco; article No.: 10099-141C; CellTiter-Glo was purchased from Promega; article No.: G7573; DMSO was purchased from VWR AMRESCO; article No.: 0231-500ML; Staurosporine was purchased from Selleck; article No.: S1421; a cell counter was purchased from CHEMOMETEC; model: NC-200; and a microplate reader was purchased from PerkinElmer; Model: Envison.
(§3) HCC70 was human breast ductal cancer cells cultured in an RPMI-1640 culture medium containing 10% FBS. Cells in logarithmic phase were taken, and the cells were subjected to digesting, collecting and counting with pancreatin-EDTA, 2000 HCC70 cells/well were inoculated in a 384-well cell plate, and were cultured in 5% CO2 overnight. A 1000× compound stock solution with 3.16 times of gradient concentration was prepared with DMSO, and was diluted 100 times to 10× compound stock solution with a culture medium, and 10× compound stock solution was added into each cell culture well on the next day after cell inoculation, wherein the final concentration was 1×, and the DMSO content was 0.1%. The cell group was treated with DMSO as an experimental control (control), and the cell group was treated with 5 μM of Staurosporine as a blank control (blank).

[2] = test system: OVCAR-3 human ovarian adenocarcinoma cells; test: OVCAR-3 tumor cell proliferation inhibition (CellTiter-Glo); type: cell-based; conditions: 3 d culture
Method: OVCAR-3 was purchased from ATCC; article No.: HTB-161; RPMI1640 was purchased from Gibco; article No.: 11875-093; Pancreatin (including EDTA) was purchased from Gibco; article No.: 25200-072; FBS was purchased from Gibco; Article No.: 10091-148; CellTiter-Glo was purchased from Promega; article No.: G7573; Bovine insulin was purchased from absin; article No.: abs9169; DMSO was purchased from VWR AMRESCO; article No.: 0231-500ML; Staurosporine was purchased from Selleck; article No.: S1421; a cell counter was purchased from CHEMOMETEC; model: NC-200; and a microplate reader was purchased from PerkinElmer; Model: Envison.
as §3, with “OVCAR-3” for “HCC70”, “ovarian adenocarcinoma” for “breast ductal cancer”, “20% FBS and 0.01 mg/mL of Bovine insulin.” for “10% FBS.”

[3] = In-vivo pharmacokinetic experiment in male beagles; design: species or system dog; conditions: beagle
Method: Experimental method and conditions: male beagles with weight of 8-11 kg were purchased from Jiangsu Marshall Biotechnology Co., Ltd. The to-be-tested compound was administered to 3 dogs at 0.2 mg/kg or 1.0 mg/kg (solvent: 2% DMSO+10% Kolliphor HS 15+88% (6.818% of hydroxypropyl-beta-cyclodextrin aqueous solution), 0.2 mg/mL or 1.0 mg/mL) by intravenous injection, and administered to 3 dogs at 2 mg/kg (solvent: 5% DMSO+95% (10% hydroxypropyl-beta-cyclodextrin salt aqueous solution, 0.4 mg/mL) by oral intragastric administration. Head vein blood sampling was carried out 5 min, 15 min, 30 min, 1 h, 2 h, 4 h, 8 h and 24 h after the administration, and 500 μL of each sample was collected. After collection, the samples were placed on ice, and plasma was centrifugally separated within 15 min for testing. The concentration of the medicine in the plasma was detected by liquid chromatography-tandem mass spectrometry (LC/MS/MS), and pharmacokinetic parameters were calculated with Phoenix WinNonlin software when the concentration was measured.

[4] = intravenous injection 0.2 mg/kg

CDK12/Cyclin K, sequence (Q9NYV4 whole entry): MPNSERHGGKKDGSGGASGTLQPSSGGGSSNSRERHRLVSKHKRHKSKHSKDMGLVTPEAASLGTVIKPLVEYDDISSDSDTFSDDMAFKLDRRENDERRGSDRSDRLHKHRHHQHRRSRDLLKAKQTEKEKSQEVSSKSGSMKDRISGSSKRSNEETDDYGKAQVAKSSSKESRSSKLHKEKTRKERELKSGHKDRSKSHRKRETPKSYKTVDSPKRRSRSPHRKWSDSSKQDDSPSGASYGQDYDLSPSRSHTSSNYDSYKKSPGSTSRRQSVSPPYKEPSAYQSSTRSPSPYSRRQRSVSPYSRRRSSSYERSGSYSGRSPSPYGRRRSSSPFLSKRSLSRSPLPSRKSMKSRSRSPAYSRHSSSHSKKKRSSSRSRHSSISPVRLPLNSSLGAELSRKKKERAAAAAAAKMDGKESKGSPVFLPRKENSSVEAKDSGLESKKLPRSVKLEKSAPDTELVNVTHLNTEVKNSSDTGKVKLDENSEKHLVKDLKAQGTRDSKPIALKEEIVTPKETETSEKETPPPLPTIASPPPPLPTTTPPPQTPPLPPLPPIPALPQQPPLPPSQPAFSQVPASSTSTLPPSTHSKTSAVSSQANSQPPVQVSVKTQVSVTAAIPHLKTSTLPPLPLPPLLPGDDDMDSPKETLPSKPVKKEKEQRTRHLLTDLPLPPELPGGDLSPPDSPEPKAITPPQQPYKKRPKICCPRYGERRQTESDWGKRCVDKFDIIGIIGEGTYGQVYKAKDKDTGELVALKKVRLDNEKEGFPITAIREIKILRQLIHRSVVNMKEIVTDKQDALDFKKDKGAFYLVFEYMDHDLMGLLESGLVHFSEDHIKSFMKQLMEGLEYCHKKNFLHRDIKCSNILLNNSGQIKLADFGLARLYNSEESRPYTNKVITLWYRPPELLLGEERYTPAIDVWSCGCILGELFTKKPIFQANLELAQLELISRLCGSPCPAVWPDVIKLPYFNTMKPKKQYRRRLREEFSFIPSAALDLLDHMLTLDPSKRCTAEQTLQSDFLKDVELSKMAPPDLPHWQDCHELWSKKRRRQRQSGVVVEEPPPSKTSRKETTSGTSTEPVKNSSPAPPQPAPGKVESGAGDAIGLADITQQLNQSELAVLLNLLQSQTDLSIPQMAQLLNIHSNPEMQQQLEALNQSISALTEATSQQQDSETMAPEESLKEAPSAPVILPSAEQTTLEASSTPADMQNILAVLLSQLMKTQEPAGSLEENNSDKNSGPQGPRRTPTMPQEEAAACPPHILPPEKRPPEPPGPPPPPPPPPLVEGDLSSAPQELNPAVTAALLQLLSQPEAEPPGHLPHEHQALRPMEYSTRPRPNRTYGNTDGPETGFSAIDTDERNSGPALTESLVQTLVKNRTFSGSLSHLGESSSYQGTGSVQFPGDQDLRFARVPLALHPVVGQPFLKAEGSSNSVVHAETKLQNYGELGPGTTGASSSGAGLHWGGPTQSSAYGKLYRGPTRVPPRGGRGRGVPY
CDK12/Cyclin K, sequence (O75909 whole entry partner): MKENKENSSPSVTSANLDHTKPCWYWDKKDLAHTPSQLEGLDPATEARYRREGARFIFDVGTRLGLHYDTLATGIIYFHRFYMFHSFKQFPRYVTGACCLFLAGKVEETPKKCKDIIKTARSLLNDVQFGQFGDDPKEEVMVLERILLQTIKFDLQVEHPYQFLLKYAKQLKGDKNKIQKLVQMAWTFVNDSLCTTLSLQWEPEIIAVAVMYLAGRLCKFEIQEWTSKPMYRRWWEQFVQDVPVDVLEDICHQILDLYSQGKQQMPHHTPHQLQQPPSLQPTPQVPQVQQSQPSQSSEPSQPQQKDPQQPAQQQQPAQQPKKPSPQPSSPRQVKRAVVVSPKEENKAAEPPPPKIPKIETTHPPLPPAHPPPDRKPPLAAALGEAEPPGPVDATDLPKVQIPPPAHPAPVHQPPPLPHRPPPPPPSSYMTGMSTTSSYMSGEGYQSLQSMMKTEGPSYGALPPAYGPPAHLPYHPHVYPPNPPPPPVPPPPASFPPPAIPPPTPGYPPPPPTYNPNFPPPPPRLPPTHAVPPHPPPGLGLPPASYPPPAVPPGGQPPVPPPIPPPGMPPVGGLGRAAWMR
CDK9/Cyclin T1, sequence (P50750 whole entry): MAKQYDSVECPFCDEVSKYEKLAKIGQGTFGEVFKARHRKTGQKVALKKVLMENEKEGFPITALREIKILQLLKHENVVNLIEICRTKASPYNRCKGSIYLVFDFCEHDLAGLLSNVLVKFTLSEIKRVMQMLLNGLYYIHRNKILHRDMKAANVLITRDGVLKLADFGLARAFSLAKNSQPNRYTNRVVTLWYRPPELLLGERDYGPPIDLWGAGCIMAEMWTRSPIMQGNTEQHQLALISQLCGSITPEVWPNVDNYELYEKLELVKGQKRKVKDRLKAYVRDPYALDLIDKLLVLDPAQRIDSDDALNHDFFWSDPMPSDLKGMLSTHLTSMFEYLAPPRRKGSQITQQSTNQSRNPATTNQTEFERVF
CDK9/Cyclin T1, sequence (O60563 whole entry partner): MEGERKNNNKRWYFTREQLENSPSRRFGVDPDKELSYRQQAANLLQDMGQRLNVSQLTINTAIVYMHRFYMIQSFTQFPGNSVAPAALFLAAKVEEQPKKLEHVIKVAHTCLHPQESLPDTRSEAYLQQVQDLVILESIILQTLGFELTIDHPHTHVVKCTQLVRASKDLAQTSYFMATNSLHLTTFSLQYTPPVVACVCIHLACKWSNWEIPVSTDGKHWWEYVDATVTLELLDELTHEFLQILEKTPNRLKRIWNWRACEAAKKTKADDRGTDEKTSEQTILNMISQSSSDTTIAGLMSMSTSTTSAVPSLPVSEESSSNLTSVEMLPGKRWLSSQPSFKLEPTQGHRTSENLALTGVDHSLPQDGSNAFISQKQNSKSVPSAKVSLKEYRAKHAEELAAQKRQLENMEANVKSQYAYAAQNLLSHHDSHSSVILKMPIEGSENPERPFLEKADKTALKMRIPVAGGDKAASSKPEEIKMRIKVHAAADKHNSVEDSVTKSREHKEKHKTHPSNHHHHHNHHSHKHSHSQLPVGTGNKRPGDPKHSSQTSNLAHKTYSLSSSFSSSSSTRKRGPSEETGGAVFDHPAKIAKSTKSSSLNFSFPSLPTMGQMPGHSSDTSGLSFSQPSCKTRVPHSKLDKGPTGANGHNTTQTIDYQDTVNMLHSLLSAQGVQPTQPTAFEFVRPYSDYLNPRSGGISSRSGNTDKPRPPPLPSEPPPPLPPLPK
CDK7/Cyclin H/MAT1, sequence (P50613 whole entry): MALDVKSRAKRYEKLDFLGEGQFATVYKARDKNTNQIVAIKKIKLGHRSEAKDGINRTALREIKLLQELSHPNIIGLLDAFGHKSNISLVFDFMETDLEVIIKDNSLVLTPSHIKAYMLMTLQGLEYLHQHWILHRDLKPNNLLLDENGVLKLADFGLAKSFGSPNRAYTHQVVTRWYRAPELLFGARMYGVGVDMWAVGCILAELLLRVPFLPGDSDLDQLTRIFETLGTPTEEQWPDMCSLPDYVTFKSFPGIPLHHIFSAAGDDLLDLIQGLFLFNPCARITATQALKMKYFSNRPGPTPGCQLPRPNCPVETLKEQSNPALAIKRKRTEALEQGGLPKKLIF
CDK7/Cyclin H/MAT1, sequence (P51946 whole entry partner): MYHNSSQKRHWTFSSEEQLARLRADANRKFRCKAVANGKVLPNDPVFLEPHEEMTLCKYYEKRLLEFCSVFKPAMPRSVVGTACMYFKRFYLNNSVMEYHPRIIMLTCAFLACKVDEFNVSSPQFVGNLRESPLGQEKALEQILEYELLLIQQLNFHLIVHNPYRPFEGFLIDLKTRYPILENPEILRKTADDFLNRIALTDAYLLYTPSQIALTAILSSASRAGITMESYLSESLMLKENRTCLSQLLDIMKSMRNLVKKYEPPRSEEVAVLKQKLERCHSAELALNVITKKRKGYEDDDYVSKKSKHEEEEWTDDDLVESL
CDK7/Cyclin H/MAT1, sequence (P51948 whole entry partner): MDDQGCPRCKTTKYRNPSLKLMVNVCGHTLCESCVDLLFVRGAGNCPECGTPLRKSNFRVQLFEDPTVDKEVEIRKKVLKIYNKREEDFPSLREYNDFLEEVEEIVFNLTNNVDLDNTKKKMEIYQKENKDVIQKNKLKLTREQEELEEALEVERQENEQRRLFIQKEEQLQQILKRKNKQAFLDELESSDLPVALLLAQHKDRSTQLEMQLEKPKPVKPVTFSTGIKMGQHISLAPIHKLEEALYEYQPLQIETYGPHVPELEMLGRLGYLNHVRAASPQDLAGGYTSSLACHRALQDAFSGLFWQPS

Molecule	IC50 (CDK7/Cyclin H/MAT1) [nM]	Ki (CDK2/Cyclin E1) [nM]	Ki (CDK9/Cyclin T1) [nM]	Ki (CDK12/Cyclin K) [nM]	Selectivity (CDK2 Ki/CDK7 KD) (CDK2/Cyclin E1)	Selectivity (CDK9 Ki/CDK7 KD) (CDK9/Cyclin T1)	Selectivity (CDK12 Ki/CDK7 KD) (CDK12/Cyclin K)	IC50 [1] [nM]	IC50 [2] [nM]	AUC0~inf [3, 4] [ng·h/mL]	CL [3, 4] [mL/min/kg]	T1/2 [3, 4] [h]	Vss [3, 4] [L/kg]	AUC0~inf ([3]; oral administration 2 mg/kg) [ng·h/mL]	Cmax ([3]; oral administration 2 mg/kg) [ng/mL]	F(%) ([3]; oral administration 2 mg/kg)	T1/2 ([3]; oral administration 2 mg/kg) [h]
O=C1NCCOCCN2CC[C@@H](C2)Nc2ncc(C(F)(F)F)c(n2)-c2c[nH]c3cc1ccc23 [Compound Z1, (4^3S)-2^5-(trifluoromethyl)-1^1H-7-oxa-3,10-diaza-1(3,6)-indola-2(4,2)-pyrimidina-4(3,1)-pyrrolidinacycloundecaphan-11-one]	11	154	52.2	62.6													
CP(C)(=O)c1c2ccc3c(c[nH]c13)-c1nc(ncc1C(F)(F)F)N[C@H]1CC[C@@H](C1)NCCCCNC2=O [Compound Z5]		25.6	95.5	26.1	(CDK2 Ki/CDK7 KD): 160	(CDK9 Ki/CDK7 KD): 597	(CDK12 Ki/CDK7 KD): 163	42.7									
CP(C)(=O)c1c2ccc3c(c[nH]c13)-c1nc(ncc1C(F)(F)F)N[C@H]1CC[C@@H](C1)NCCOCCNC2=O [Compound Z7, (4^1S,4^3S)-1^7-(dimethylphosphoryl)-2^5-(trifluoromethyl)-1H-8-oxa-3,5,11-triaza-1(3,6)-indola-2(4,2)-pyrimidina-4(1,3)-cyclopentanacyclododecaphan-12-one]		33.4	217	61.4	(CDK2 Ki/CDK7 KD): 566	(CDK9 Ki/CDK7 KD): 3675	(CDK12 Ki/CDK7 KD): 61.35	41.1									
CN1CC(F)(F)CCN(C)[C@H]2CC[C@@H](C2)Nc2ncc(C(F)(F)F)c(n2)-c2c[nH]c3c(P(C)(C)=O)c(ccc23)C1=O [Compound Z65, (4^1S,43S)-1^7-(dimethylphosphoryl)-8,8-difluoro-5,10-dimethyl-2^5-(trifluoromethyl)-1^1H-3,5,10-triaza-1(3,6)-indola-2(4,2)-pyrimidina-4(1,3)-cyclopentanacycloundecaphan-11-one]			258					46.9	254	3097	1.23	3.42	0.24	45620	6623	147	4.44
CN1C[C@@H](F)CCN(C)[C@H]2CC[C@@H](C2)Nc2ncc(C(F)(F)F)c(n2)-c2c[nH]c3c(P(C)(C)=O)c(ccc23)C1=O [Compound Z79, (4^1S,4^3S,8S)-1^7-(dimethylphosphoryl)-8-fluoro-5,10-dimethyl-2^5-(trifluoromethyl)-1^1H-3,5,10-triaza-1(3,6)-indola-2(4,2)-pyrimidina-4(1,3)-cyclopentanacycloundecaphan-11-one]		23.3	134	92.8	(CDK2 Ki/CDK7 KD): 192	(CDK9 Ki/CDK7 KD): 1103	(CDK12 Ki/CDK7 KD): 763	66.5	84								
(4^1S, 4^3S)-2^5-(trifluoromethyl)-1^1H-3,5,10-triaza-1(3,6)-indola-2(4,2)-pyrimidina-4(1,3)-cyclopentanacycloundecaphan-11-one [Compound Z2]	4.58	9.8	10.6	22.7	(CDK2 Ki/CDK7 KD): 70	(CDK9 Ki/CDK7 KD): 76	(CDK12 Ki/CDK7 KD): 162	207									
